Laboratory results taken from patent publication US9233978B2, “6-fused heteroaryldihydropyrimidines for the treatment and prophylaxis of hepatitis B virus infection” (Hoffmann-La Roche Inc., priority 2014, dated 2016).
In brackets after ≈: the same amount, converted by molar mass.

What was measured:
CYP3A4 = test: Cytochrome P450 induction screening assay, mRNA induction in human cryopreserved hepatocytes; format: in vitro ADME; conditions: CYP3A4 mRNA relative induction, 24 hours, test compound up to 10 μM
Method: Human cryopreserved hepatocytes (Life Technologies, Carlsbad, USA) were thawed and cultured in collagen I coated 96-well plates with a density of 52,000 cells/well. After attachment, medium was changed and cells were pre-cultured overnight in hepatocyte maintenance medium (HMM; Lonza, Switzerland).
Test compounds were dosed to the cells next morning at an indicated concentration (up to 10 μM) in HMM culture media containing gentamycin and a constant 0.1% DMSO. Similarly, dilutions of the positive inducer compounds omeprazole (prototypical inducer of human CYP1A2; final concentrations: 1 and 10 μM), phenobarbital (prototypical inducer of human CYP2B6; final concentrations: 100 and 1000 μM) and rifampicin (prototypical inducer of human CYP3A4; final concentrations: 1 and 10 μM) were prepared from 1000 fold DMSO stock solutions in HMM containing gentamycin. Medium change was then performed and cells were exposed for 24 hours to test compounds, positive inducer compounds, or vehicle (0.1% DMSO), respectively.
At the end of the compound exposure period, medium was removed and cells lysed using 100 μL/well MagNA Pure LC RNA isolation tissue lysis buffer (Roche Diagnostics AG, Rotkreuz, Switzerland). Plates were then sealed and frozen at −80° C. until further workup.
mRNA isolation was performed using the MagNA Pure 96 system (Roche Diagnostics AG, Rotkreuz, Switzerland) and the respective cellular RNA large volume kit (Roche Diagnostics AG, Rotkreuz, Switzerland) from thawed samples diluted 1:1 with PBS. The volume of the cell lysis and an elution volume of 100 μL were used. 20 μl of the resulting mRNA suspension was then used for reverse transcription using 20 μl of the transcript or first stand cDNA synthesis kit (Roche prime Supply, Mannheim, Germany). The resulting cDNA was diluted with 40 μl of H2O before using for qRT-PCR. qRT-PCR was performed by using the forward and the reverse primer, the corresponding UPL (all from Microsynth, Balgach, Switzerland) and the Taqman Fast advanced master mix (Applied Biosystems), on an ABI 7900 machine (Applied Biosystems).
qRT-PCR Ct-values for the respective P450s were put into relation to the Ct-value of RN18S1 (microsynth, Balgach, Switzerland) of the same sample. Doing so, a respective Δct-value was calculated. Using the average of all Δct-values for the vehicle control samples, a ΔΔct-value was calculated for each sample (ΔΔct-value(sample)=Δct-value(sample)−average of Δct-value of all vehicle controls). The fold induction of the respective sample was calculated as 2^(−ΔΔct). The individual fold induction values were then averaged per treatment condition (usually n=3 biological replicates).
Relative induction values to the respective positive inducer compound condition (10 μM omeprazole for CYP1A2; 1000 μM Phenobarbital for CYP2B6; 10 μM rifampicin for CYP3A4) were then calculated from the fold induction values as follows: Relative induction (%)=100×(T−V)/(P−V)

HepDE19 cells = test: Cytotoxicity in HepDE19 cells (CCK-8) and selectivity index; format: cell-based; conditions: CC50 (HepDE19) value / EC50 (HepG2.2.15) value
Source text: (§1) HepG2.2.15 and HepDE19 are stably-transfected cell lines containing the HBV genome. Both cell lines are derived from the hepatoblastoma cell line Hep G2 (American Type Culture Collection, ATCC® HB-8065™) by the published procedures described in references: MA Selles et al. Proc. Natl. Acad. Sci. USA 1987, 84, 1005-1009 and H Guo et al. Journal of Virology 2007, 81, 12472-12484, respectively. Both cell lines were maintained in Dulbecco's modified Eagle's medium (DMEM)-F12 medium supplemented with 10% fetal bovine serum, 100 U/mL penicillin, 100 μg/mL streptomycin, and 0.5 mg/mL of G418.
(§2) HepDE19 cells were seeded into 96-well plates (5×10^3 cells per well) and treated with compounds for EC50 determination. Five days after treatment, cell viability was measured by addition of 20 μL of CCK-8 reagent. Two hours after incubation at 37° C., the absorbance at wavelengths of 450 nm and 630 nm (OD450 and OD630) was recorded by a plate reader. The concentration results in the death of 50% of the host cells (CC50) of each compound were determined.
(§3) The relative effectiveness of the compound in inhibiting viral replication compared to inducing cell death was defined as the selectivity index (CC50 value/EC50 value). Based on CC50 and EC50 data, selectivity indexes were determined.

[1] = as above; format: cell-based; conditions: human, HepDE19 cells; CCK-8 cell viability; five days after treatment
Source text: as §1, §2, §3

HBV = test: Anti-HBV activity in vitro, HepG2.2.15 cells, extracellular HBV DNA by qPCR; format: cell-based; conditions: Hepatitis B virus, HepG2.2.15, 120 h, HepG2.2.15 cells; HBV replication inhibited by 50%, extracellular HBV DNA by qPCR; five days after compound treatment; read-out: EC50
In short: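 HBV-producing HepG2.2.15 cells were seeded and left overnight at 37 °C, then treated with half-log serial compound dilutions at a final 0.5% DMSO. After 5 days, viral DNA was extracted from the supernatant and extracellular HBV DNA was quantified by qPCR.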

[2] = Human microsomal metabolic stability; format: in vitro ADME; conditions: human microsomes 0.5 mg/mL, 1 μM test compound, NADPH, 37° C., pH 7.4, 0-30 minutes
In short: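 1 μM compound with 0.5 mg/mL human liver microsomal protein in 100 mM phosphate pH 7.4 at 37° C, started with 1 mM NADPH or a NADPH-regenerating system. Sampled at 0–30 min, quenched in cold methanol with tolbutamide internal standard; remaining parent quantified by LC-MS/MS.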

Lysa solubility = format: physicochemical; conditions: phosphate buffer, pH 6.5, aqueous buffer, thermodynamic from solid, 0.05 M phosphate buffer (pH 6.5)
In short: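 Duplicate samples dried from 10 mM DMSO stocks, taken up in 0.05 M phosphate buffer pH 6.5, stirred 1 h, shaken 2 h and left overnight. Filtrate and 1/10 dilution quantified by direct UV or HPLC-UV, in μg/mL; above 80% of the calculated maximum, reported as greater than that value.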

Row | Structure (SMILES) | % of Positive control (10 μM Rifampicin) (CYP3A4) [%] | Selectivity index (CC50/EC50) (HepDE19 cells) | CC50 at 5 days [1] [µM] | EC50 (HBV) [nM] | Human Microsomal Clearance [2] [mL/min/kg] | solubility thermodynamic (Lysa solubility) [µg/mL]
1 | COC(=O)C1=C(CN2CCN3C(=O)NC[C@@H]3C2)NC(c2nccs2)=N[C@H]1c1ccc(F)cc1Cl [Example 11, Methyl (4R)-6-[[(8aR)-3-oxo-1,2,5,6,8,8a-hexahydroimidazo[1,5-a]pyrazin-7-yl]methyl]-4-(2-chloro-4-fluoro-phenyl)-2-thiazol-2-yl-1,4-dihydropyrimidine-5-carboxylate] | 17 | 30635 | 52 | 1 | – | –
2 | COC(=O)C1=C(CN2CCN3C(=O)N(c4ccc(C(=O)O)cc4)C[C@@H]3C2)NC(c2nccs2)=N[C@H]1c1ccc(F)cc1Cl [Example 25, (R)-6-[(S)-2-(4-Carboxy-phenyl)-3-oxo-hexahydro-imidazo[1,5-a]pyrazin-7-ylmethyl]-4-(2-chloro-4-fluoro-phenyl)-2-thiazol-2-yl-1,4-dihydro-pyrimidine-5-carboxylic acid methyl ester] | 0 | – | – | 2 | 0.4 | –
3 | COC(=O)C1=C(CN2CCN3C(=O)N(C4CC4)C[C@@H]3[C@H]2C(=O)O)NC(c2nccs2)=N[C@H]1c1ccc(F)cc1Cl (racemic) [Example 45, 7-[[(4R)-4-(2-chloro-4-fluoro-phenyl)-5-methoxycarbonyl-2-thiazol-2-yl-1,4-dihydropyrimidin-6-yl]methyl]-2-cyclopropyl-3-oxo-5,6,8,8a-tetrahydro-1H-imidazo[1,5-a]pyrazine-8-carboxylic acid] | 20 | – | – | 26 | – | > 690
4 | CCOC(=O)C1=C(CN2CCN3C(=O)N(CC4CC(C(=O)O)C4)C[C@@H]3C2)NC(c2nccs2)=N[C@H]1c1cccc(F)c1Cl (stereo partly drawn) [Example 81, 3-[[(8aS)-7-[[(4R)-4-(2-chloro-3-fluoro-phenyl)-5-ethoxycarbonyl-2-thiazol-2-yl-1,4-dihydropyrimidin-6-yl]methyl]-3-oxo-5,6,8,8a-tetrahydro-1H-imidazo[1,5-a]pyrazin-2-yl]methyl]cyclobutanecarboxylic acid] | – | 8500 | 85 | 10 | 0.1 | 279 (≈ 442 µM)
5 | COC(=O)C1=C(CN2CCN3C(=O)N(C4CC4)CC3(CC(=O)O)C2)NC(c2nccs2)=N[C@H]1c1ccc(F)cc1Cl (stereo partly drawn) [Example 30, 2-[7-[[(4R)-4-(2-chloro-4-fluoro-phenyl)-5-methoxycarbonyl-2-thiazol-2-yl-1,4-dihydropyrimidin-6-yl]methyl]-2-cyclopropyl-3-oxo-1,5,6,8-tetrahydroimidazo[1,5-a]pyrazin-8a-yl]acetic acid] | 7.3 | – | – | 95 | 1.7 | 610 (≈ 1010 µM)
6 | CCOC(=O)C1=C(CN2CCN3C(=O)N(c4cccc(C(=O)O)c4)C[C@@H]3C2)NC(c2nccs2)=N[C@H]1c1cccc(F)c1Cl [Example 27, (R)-6-[(S)-2-(3-Carboxy-phenyl)-3-oxo-hexahydro-imidazo[1,5-a]pyrazin-7-ylmethyl]-4-(2-chloro-3-fluoro-phenyl)-2-thiazol-2-yl-1,4-dihydro-pyrimidine-5-carboxylic acid ethyl ester] | 0.2 | – | – | 3 | – | –
7 | CCOC(=O)C1=C(CN2CCN3C(=O)CC[C@@H]3[C@H]2C(=O)O)NC(c2nccs2)=N[C@H]1c1cccc(F)c1Cl (racemic) [Example 99, 2-[[(4R)-4-(2-chloro-3-fluoro-phenyl)-5-ethoxycarbonyl-2-thiazol-2-yl-1,4-dihydropyrimidin-6-yl]methyl]-6-oxo-1,3,4,7,8,8a-hexahydropyrrolo[1,2-a]pyrazine-1-carboxylic acid] | – | >7142 | > 100 | 14 | 6.1 | > 710
8 | COC(=O)C1=C(CN2CCN3C(=O)N(C4CCC(C(=O)O)C4)C[C@@H]3C2)NC(c2nccs2)=N[C@H]1c1ccc(F)cc1Cl (mixture of isomers) [Example 61, (R)-6-[(S)-2-((1R,3S)-3-Carboxy-cyclopentyl)-3-oxo-hexahydro-imidazo[1,5-a]pyrazin-7-ylmethyl]-4-(2-chloro-4-fluoro-phenyl)-2-thiazol-2-yl-1,4-dihydro-pyrimidine-5-carboxylic acid methyl ester and (R)-6-[(S)-2-((1S,3R)-3-Carboxy-cyclopentyl)-3-oxo-hexahydro-imidazo[1,5-a]pyrazin-7-ylmethyl]-4-(2-chloro-4-fluoro-phenyl)-2-thiazol-2-yl-1,4-dihydro-pyrimidine-5-carboxylic acid methyl ester] | – | >8333 | > 100 | 12 | 0.4 | > 742
9 | COC(=O)C1=C(CN2CCN3C(=O)N(C4CC5(CC(C(=O)O)C5)C4)C[C@@H]3C2)NC(c2nccs2)=N[C@H]1c1ccc(F)cc1Cl (stereo partly drawn) [Example 79, 2-[(8aS)-7-[[(4R)-4-(2-chloro-4-fluoro-phenyl)-5-methoxycarbonyl-2-thiazol-2-yl-1,4-dihydropyrimidin-6-yl]methyl]-3-oxo-5,6,8,8a-tetrahydro-1H-imidazo[1,5-a]pyrazin-2-yl]spiro[3.3]heptane-6-carboxylic acid] | – | 6500 | 52 | 8 | 3.6 | 180 (≈ 280 µM)
10 | COC(=O)C1=C(CN2CCN3C(=O)N(CC(C)(C)C(=O)O)C[C@@H]3C2)NC(c2nccs2)=N[C@H]1c1ccc(F)c(F)c1C [Example 43, 3-[(8aS)-7-[[(4S)-4-(3,4-difluoro-2-methyl-phenyl)-5-methoxycarbonyl-2-thiazol-2-yl-1,4-dihydropyrimidin-6-yl]methyl]-3-oxo-5,6,8,8a-tetrahydro-1H-imidazo[1,5-a]pyrazin-2-yl]-2,2-dimethyl-propanoic acid] | 0.2 | – | – | 6 | 3.1 | –
